Measurements: patent US10966426B2, “Herbicidal compositions comprising phenylpyrimidines” (BASF SE, priority 2016, dated 2021)
Where “and” joins values, the source holds several entries; their conditions need not be identical. Equal entries are not always repeated.

What was measured:
Format in all cases: in vivo
[1] = test system: Avena fatua; assay: greenhouse post-emergence treatment, AVEFA; settings: Ex. 26 solo, 250 gai/ha, 20 DAT, AVEFA
Summary of the method: (§1)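 Scoring used a 0 to 100 scale, with 100 denoting no emergence or full destruction of at least the above-ground parts, recorded within a 2 to 4 week test period. Test plants grew in loamy sand containing about 3.0% humus at 10-25° C. or 20-35° C., after direct sowing or transplanting, and received water-based treatments post-emergence.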

[2] = test system: Lolium multiflorum; assay: greenhouse post-emergence treatment, LOLMU
Summary of the method: as §1

[3] = test system: Bromus sterilis; assay: greenhouse post-emergence treatment, BROST
Summary of the method: as §1

[4] = test system: Poa annua; assay: greenhouse post-emergence treatment, POAAN
Summary of the method: (§2)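 Visual herbicidal effect (0–100) recorded over a 2 to 4 week test period after foliar treatment at plant heights of 3 to 15 cm. Expected combination effects derived by the Colby formula from single-component effects X and Y.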

[5] = test system: Ambrosia elatior; assay: greenhouse post-emergence treatment, AMBEL
Summary of the method: as §2

[6] = test system: Brachiaria decumbens; assay: greenhouse post-emergence treatment, BRADC
Summary of the method: as §2

[7] = test system: Avena fatua; assay: greenhouse pre-emergence treatment, AVEFA
Summary of the method: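 Damage rated on 0 to 100 scale (0 = normal growth, 100 = no emergence or total above-ground kill) after 2-4 weeks at species-dependent 10-25° C or 20-35° C. Seeds sown per species in loamy sand, ~3.0% humus, treated right after sowing with aqueous spray of single actives or 10% emulsion-concentrate mixtures, then hooded; additive expectation by Colby.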

[8] = 20 DAT, Ex. 26 solo 62.5 gai/ha

COC(=O)c1nc(C2CC2)ncc1-c1ccc(F)cc1Cl [Ex. 26]
% activity [1]: 85% | % activity [2, 8]: 0% | % activity ([2]; 20 DAT, LOLMU, Ex. 26 solo 125 gai/ha): 65% and 55% | % activity ([2]; 20 DAT, LOLMU, Ex. 26 solo 250 gai/ha): 65% | % activity ([2]; 21 DAT, Ex. 26 solo 125 gai/ha): 10% | % activity ([2]; 21 DAT, Ex. 26 solo 250 gai/ha): 55% | % activity ([2]; Ex. 26 solo 62.5 gai/ha, 20 DAT, LOLMU (pyridate table)): 0% | % activity ([2]; Ex. 26 solo 62.5 gai/ha, 20 DAT, LOLMU (pyroxsulam table)): 10% | % activity ([2]; Ex. 26 solo 62.5 gai/ha, 21 DAT, LOLMU): 0% | % activity ([2]; Ex. 26 solo 125 gai/ha, 20 DAT, LOLMU (pyridate table)): 35% | % activity ([2]; Ex. 26 solo 125 gai/ha, 20 DAT, LOLMU (pyroxsulam table)): 35% | % activity ([2]; Ex. 26 solo 125 gai/ha, 21 DAT, LOLMU): 10% | % activity ([2]; Ex. 26 solo 250 gai/ha, 20 DAT, LOLMU (pyridate table)): 60% | % activity ([2]; Ex. 26 solo 250 gai/ha, 20 DAT, LOLMU (pyroxsulam table)): 55% | % activity ([2]; Ex. 26 solo, 125 gai/ha, 20 DAT, LOLMU): 0% | % activity ([2]; Ex. 26 solo, 125 gai/ha, 21 DAT, LOLMU): 15% | % activity ([2]; Ex. 26 solo, 250 gai/ha, 20 DAT, LOLMU): 25% | % activity ([2]; Ex. 26 solo, 250 gai/ha, 21 DAT, LOLMU): 30% | % activity ([2]; LOLMU, 21 DAT, solo Ex. 26 62.5 gai/ha): 0% | % activity ([2]; LOLMU, 21 DAT, solo Ex. 26 125 gai/ha): 15% | % activity ([2]; LOLMU, 21 DAT, solo Ex. 26 250 gai/ha): 30% | % activity ([2]; LOLMU, Ex. 26 solo 125 gai/ha, 20 DAT): 55% and 35% | % activity ([2]; LOLMU, Ex. 26 solo 250 gai/ha, 20 DAT): 65% | % activity ([3]; 20 DAT, BROST, Ex. 26 solo 125 gai/ha): 60% and 35% | % activity ([3]; 20 DAT, BROST, Ex. 26 solo 250 gai/ha): 65% | % activity [3, 8]: 0% | % activity ([3]; 20 DAT, Ex. 26 solo 250 gai/ha): 35% and 55% and 30% | % activity ([3]; 21 DAT, Ex. 26 solo 125 gai/ha): 5% | % activity ([3]; 21 DAT, Ex. 26 solo 250 gai/ha): 35% | % activity ([3]; BROST, Ex. 26 solo 125 gai/ha, 20 DAT): 60% and 35% and 40% | % activity ([3]; BROST, Ex. 26 solo 250 gai/ha, 20 DAT): 65% | % activity ([3]; Ex. 26 solo 62.5 gai/ha, 20 DAT, BROST): 0% | % activity ([3]; Ex. 26 solo 125 gai/ha, 21 DAT, BROST): 5% | % activity ([3]; Ex. 26 solo 250 gai/ha, 21 DAT, BROST): 35% | % activity ([3]; Ex. 26 solo, 125 gai/ha, 20 DAT, BROST): 5% | % activity ([3]; Ex. 26 solo, 125 gai/ha, 21 DAT, BROST): 15% | % activity ([3]; Ex. 26 solo, 250 gai/ha, 21 DAT, BROST): 25% | % activity ([4]; 20 DAT, Ex. 26 solo 250 gai/ha): 70% | % activity ([4]; 20 DAT, POAAN, Ex. 26 solo 125 gai/ha): 75% and 70% | % activity ([4]; 20 DAT, POAAN, Ex. 26 solo 250 gai/ha): 80% | % activity ([4]; 21 DAT, Ex. 26 solo 125 gai/ha): 65% | % activity ([4]; 21 DAT, Ex. 26 solo 250 gai/ha): 75% | % activity ([4]; Ex. 26 solo 62.5 gai/ha, 21 DAT, POAAN): 35% | % activity ([4]; Ex. 26 solo, 125 gai/ha, 20 DAT, POAAN): 40% | % activity ([4]; Ex. 26 solo, 125 gai/ha, 21 DAT, POAAN): 40% | % activity ([4]; Ex. 26 solo, 250 gai/ha, 20 DAT, POAAN): 70% | % activity ([4]; POAAN, 21 DAT, solo Ex. 26 62.5 gai/ha): 30% | % activity ([4]; POAAN, Ex. 26 solo 125 gai/ha, 20 DAT): 70% | % activity ([4]; POAAN, Ex. 26 solo 250 gai/ha, 20 DAT): 60% | % activity ([5]; 20 DAT, AMBEL, Ex. 26 solo 62.5 gai/ha): 0% | % activity ([5]; 20 DAT, AMBEL, Ex. 26 solo 125 gai/ha): 0% | % activity ([5]; 20 DAT, AMBEL, Ex. 26 solo 250 gai/ha): 40% | % activity [5, 8]: 0% | % activity ([5]; 20 DAT, Ex. 26 solo 125 gai/ha): 0% | % activity ([5]; 20 DAT, Ex. 26 solo 250 gai/ha): 0% | % activity ([5]; 21 DAT, Ex. 26 solo 250 gai/ha): 0% | % activity ([5]; AMBEL, Ex. 26 solo 62.5 gai/ha, 20 DAT): 0% | % activity ([5]; AMBEL, Ex. 26 solo 125 gai/ha, 20 DAT): 0% | % activity ([5]; AMBEL, Ex. 26 solo 250 gai/ha, 20 DAT): 60% | % activity ([5]; Ex. 26 solo 62.5 gai/ha, 20 DAT, AMBEL (pyridate table)): 0% | % activity ([5]; Ex. 26 solo 62.5 gai/ha, 20 DAT, AMBEL (pyroxsulam table)): 0% | % activity ([5]; Ex. 26 solo 62.5 gai/ha, 21 DAT, AMBEL): 5% | % activity ([5]; Ex. 26 solo 125 gai/ha, 20 DAT, AMBEL (pyridate table)): 0% | % activity ([5]; Ex. 26 solo 125 gai/ha, 20 DAT, AMBEL (pyroxsulam table)): 0% | % activity ([5]; Ex. 26 solo 250 gai/ha, 20 DAT, AMBEL (pyroxsulam table)): 20% | % activity ([5]; Ex. 26 solo 250 gai/ha, 21 DAT, AMBEL): 0% | % activity ([5]; Ex. 26 solo, 125 gai/ha, 21 DAT, AMBEL): 0% | % activity ([5]; Ex. 26 solo, 250 gai/ha, 21 DAT, AMBEL): 20% | % activity ([6]; 20 DAT, BRADC, Ex. 26 solo 125 gai/ha): 30% and 55% | % activity ([6]; 20 DAT, BRADC, Ex. 26 solo 250 gai/ha): 60% | % activity [6, 8]: 0% | % activity ([6]; 20 DAT, Ex. 26 solo 250 gai/ha): 35% and 50% and 30% | % activity ([6]; BRADC, 21 DAT, solo Ex. 26 62.5 gai/ha): 0% | % activity ([6]; BRADC, 21 DAT, solo Ex. 26 125 gai/ha): 10% | % activity ([6]; BRADC, 21 DAT, solo Ex. 26 250 gai/ha): 40% | % activity ([6]; BRADC, Ex. 26 solo 125 gai/ha, 20 DAT): 30% and 40% | % activity ([6]; Ex. 26 solo 62.5 gai/ha, 20 DAT, BRADC (pyridate table)): 20% | % activity ([6]; Ex. 26 solo 62.5 gai/ha, 20 DAT, BRADC (pyroxsulam table)): 0% | % activity ([6]; Ex. 26 solo 62.5 gai/ha, 21 DAT, BRADC): 0% | % activity ([6]; Ex. 26 solo 125 gai/ha, 20 DAT, BRADC (pyridate table)): 40% | % activity ([6]; Ex. 26 solo 125 gai/ha, 20 DAT, BRADC (pyroxsulam table)): 20% | % activity ([6]; Ex. 26 solo 125 gai/ha, 21 DAT, BRADC): 0% | % activity ([6]; Ex. 26 solo 250 gai/ha, 20 DAT, BRADC (pyroxsulam table)): 35% | % activity ([6]; Ex. 26 solo, 125 gai/ha, 20 DAT, BRADC): 0% | % activity ([6]; Ex. 26 solo, 125 gai/ha, 21 DAT, BRADC): 10% | % activity ([6]; Ex. 26 solo, 250 gai/ha, 20 DAT, BRADC): 30% | % activity ([6]; Ex. 26 solo, 250 gai/ha, 21 DAT, BRADC): 40% | % activity ([7]; 20 DAT, AVEFA, Ex. 26 solo 125 gai/ha): 65% and 70% | % activity ([7]; 20 DAT, Ex. 26 solo 125 gai/ha): 65% | % activity ([7]; 21 DAT, AVEFA, Ex. 26 solo 250 gai/ha): 70% | % activity ([7]; AVEFA, 20 DAT, solo Ex. 26 62.5 gai/ha): 55% | % activity ([7]; AVEFA, 20 DAT, solo Ex. 26 62.5 gai/ha (Table X68)): 45% | % activity ([7]; AVEFA, 20 DAT, solo Ex. 26 125 gai/ha): 75% | % activity ([7]; AVEFA, 20 DAT, solo Ex. 26 125 gai/ha (Table X68)): 65% | % activity ([7]; AVEFA, Ex. 26 solo 62.5 gai/ha, 20 DAT): 40% | % activity ([7]; AVEFA, Ex. 26 solo 125 gai/ha, 20 DAT): 65% | % activity ([7]; AVEFA, Ex. 26 solo 250 gai/ha, 20 DAT): 75% | % activity ([7]; Ex. 26 solo, 31.25 gai/ha, 20 DAT, AVEFA): 25% and 20% | % activity ([7]; Ex. 26 solo, 62.5 gai/ha, 20 DAT, AVEFA): 55%
